Earlier results, collected in patent publication US20240180903A1, “INJECTABLE PHARMACEUTICAL COMPOSITION, PREPARATION METHOD THEREFOR AND USE THEREOF” (ZHEJIANG CUIZE PHARMACEUTICAL TECHNOLOGY CO., LTD., priority 2022, published 2024).
pIC50: −log10 of the molar value.

What was measured:
HIV = details: read-out: IC50 against HIV
HIV RNA in plasma = details: oral 5 mg/d or 30 mg/d, 10 d after a single dose

- pIC50 (HIV): 9.66
Compound: C[C@H]1CO[C@@H]2Cn3cc(C(=O)NCc4ccc(F)cc4F)c(=O)c(O)c3C(=O)N12 [Cabotegravir]
- HIV RNA in plasma (HIV RNA in plasma): 2.2-2.3 copies/mL
